Measurements reported in patent US9181182B2, “S1P receptors modulators” (Akaal Pharma PTY LTD, priority 2008, dated 2015).
Counter-ions that a name gives are not always drawn.

What was measured:
S1P1 human receptor = S1P1 human receptor (Homo sapiens (Human), UniProt P21453); test: S1P1 [35S]-GTPgamaS binding assay (agonist activity); assay type: biochemical; conditions: for EC50S1P1/EC50S1P: potency at S1P1 relative to S1P; for EC50: GTPgamaS binding, agonist; for Efficacy (% of maximum): S1P1, relative to reference agonist S1P
Experimental: Selected Compounds of the Examples were evaluated at Millipore Corporation, USA, using S1P1 receptor; [^35S]-GTPgamaS binding assay. A [^35S]-GTPgamaS binding assay at Millipore was conducted by GPCR Profiler™ Custom Service Laboratory, Temecula, Calif., Millipore, Inc. to monitor dose-dependent agonist selectivity for selected Examples against the S1P1 receptors. The assay was completed with sample compounds subjected to an eight-point, four-fold dose response curve with starting concentration of 10 μM. Selectivity was determined upon initial addition of compounds followed by a 30 minute incubation at 30° C. Following compound incubation, bounded [^35S]-GTPgamaS was determined by filtration and scintillation counting.
(§1) Independently, selected compounds were evaluated for S1P1 and S1P3 agonistic activity. The S1P1 assay system was GTPgama-S35 binding in membranes from CHO K1 cells, expressing S1P1 human receptor. The S1P3 assay system was calcium mobilization in CHO K1 cells expressing S1P3 human receptor. […] Compounds were tested initially at a concentration of 10 μM.

[1] = system: Human promyelocytic leukemia (HL-60) cells; test: Cell viability (growth inhibition) assay, MTS; assay type: cell-based; conditions: 50% reduction in cell viability of HL-60 cells, 48 hr incubation
Experimental: In order to measure the apoptotic effect of compounds on the metabolic activity of viable cells, the following assay was performed on Human promyelocytic leukemia cells. The assay utilises the tetrazolium compound (3-(4,5-dimethylthiazol-2-yl)-5-(3-carboxymethoxyphenyl)-2-(4-sulfophenyl)-2H-tetrazolium, inner salt; (MTS) and an electron coupling reagent (phenazine methosulfate; (PMS). MTS is bioreduced by cells into a formazan product the optical absorbance of which is measured directly from 96 well assay plates. The conversion of MTS into aqueous, soluble formazan is accomplished by dehydrogenase enzymes found in metabolically active cells. The quantity of formazan product as measured by the amount of 490 nm absorbance is directly proportional to the number of living cells in culture.
The assay was based on the National Cancer Institute (NCI) protocol, briefly, cells were grown in RPMI 1640 media supplemented with 10% FCS (foetal calf serum) and kept at 37° C. in a humidified environment with 5% CO2.
For the growth inhibition assay, Human promyelocytic leukemia (HL-60) cells were seeded at a density of 10,000 cells per well in 96 well plates in a volume of 100 μl and allowed to grow for 24 h. Compounds were serially diluted in DMSO at concentrations 100 fold higher than used in the assay (100×). Compounds were freshly prepared for each experiment. The 100× stocks were then diluted to 2× stocks into media and immediately, 100 μl of this 2× stock was added to the cells to create the desired final concentration of drug with a DMSO concentration of 1%. One row of each 96 well plate was treated with DMSO alone as a control. Cells were then incubated for a further 48 hr. Metabolic activity was determined using MTS (Promega) (90% 1.6 mg/ml MTS, 10% 1.6 mg/ml PMS (phenazine methosulfate) made fresh in PBS). 50 μl of this mix was added to all wells of the plates and allowed to incubate for 1.5-2 hr. Plates were shaken gently for about 15 min and absorbance was read on a plate reader at 490 nm. Averages were taken of the readings at each point with standard deviation and plotted using MicroCal Origin.

S1P3 human receptor = S1P3 human receptor (Homo sapiens (Human), UniProt Q99500); test: S1P3 calcium mobilization in CHO K1 cells; assay type: cell-based; conditions: NA = Not Active
Experimental: as §1

Chain of S1P3 human receptor (Q99500 whole entry): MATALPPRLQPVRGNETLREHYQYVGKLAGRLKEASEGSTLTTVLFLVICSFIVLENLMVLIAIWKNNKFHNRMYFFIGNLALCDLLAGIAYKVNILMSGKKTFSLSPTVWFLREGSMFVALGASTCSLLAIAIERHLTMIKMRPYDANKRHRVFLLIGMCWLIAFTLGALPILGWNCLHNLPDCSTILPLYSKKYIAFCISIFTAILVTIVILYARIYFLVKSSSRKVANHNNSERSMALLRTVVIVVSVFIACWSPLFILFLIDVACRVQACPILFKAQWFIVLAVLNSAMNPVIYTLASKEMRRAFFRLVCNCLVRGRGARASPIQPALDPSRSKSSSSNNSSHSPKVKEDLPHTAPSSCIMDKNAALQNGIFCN
Chain of S1P1 human receptor (P21453 whole entry): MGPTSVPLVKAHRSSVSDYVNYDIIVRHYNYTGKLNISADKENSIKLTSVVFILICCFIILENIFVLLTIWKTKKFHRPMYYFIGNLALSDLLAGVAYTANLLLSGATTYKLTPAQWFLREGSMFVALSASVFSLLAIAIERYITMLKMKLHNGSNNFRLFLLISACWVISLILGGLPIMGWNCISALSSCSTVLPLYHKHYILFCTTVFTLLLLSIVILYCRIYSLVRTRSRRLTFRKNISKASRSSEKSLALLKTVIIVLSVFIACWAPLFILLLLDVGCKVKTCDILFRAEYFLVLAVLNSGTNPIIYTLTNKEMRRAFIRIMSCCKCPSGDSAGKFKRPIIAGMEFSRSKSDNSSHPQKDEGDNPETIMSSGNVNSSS

EC50S1P1/EC50S1P (S1P1 human receptor)	IC50 [1]	EC50 (S1P1 human receptor)	Efficacy (% of maximum) (S1P1 human receptor)	IC50 ([1]; Homo sapiens)	EC50 (S1P3 human receptor)	Molecule
>1000	2910 ± 130 nM	–	–	–	–	2-Amino-2-((5-(5-3-(1-admantyl)-3-methoxyphenyl)-1,2,4-oxadiazol-3-yl)indolin-1-yl)methyl)propane-1,3-diol [Example 33]
4.75	–	54 nM	106%	1700 ± 100 nM	–	CCOc1ccc(-c2nc(-c3cccc4c3ccn4CC(N)(CO)CO)no2)cc1OCC [Example 35, 2-Amino-2-((4-(5-(3,4-diethoxyphenyl)-1,2,4-oxadiazol-3-yl)-1H-indol-1-yl)methyl)propane-1,3-diol]
65	–	501 nM	99%	1310 ± 350 nM	–	NC(CO)(CO)CN1CCc2c(-c3noc(-c4ccc(-c5ccccc5C(F)(F)F)cc4)n3)cccc21 [Example 36, 2-Amino-2-((4-(5-(2′-(trifluoromethyl)biphenyl-4-yl)-1,2,4-oxadiazol-3-yl)indolin-1-yl)methyl)propane-1,3-diol]
117.8	–	1420 nM	92%	1700 ± 100 nM	–	Cc1cc2cc(-c3nc(-c4cccc5c4CCN5CC(N)(CO)CO)no3)ccc2o1 [Example 42, 2-Amino-2-((4-(5-(2-methylbenzofuran-5-yl)-1,2,4-oxadiazol-3-yl)indolin-1-yl)methyl)propane-1,3-diol]
2.22	–	18 nM	89%	–	3100 nM	CCCOc1ccc(-c2nc(-c3cccc4c3CCN4CC(N)(CO)CO)no2)cc1OCCC [Example 43, 2-Amino-2-((4-(5-(3,4-di-propoxyphenyl)-1,2,4-oxadiazol-3-yl)indolin-1-yl)methyl)propane-1,3-diol]
0.33	–	2.4 nM	94%	–	965 nM	CCCc1ccc(-c2nc(-c3cccc4c3CCN4CC(N)(CO)CO)no2)cc1CCC [Example 47, 2-Amino-2-((4-(5-(3,4-dipropylphenyl)-1,2,4-oxadiazol-3-yl)indolin-1-yl)methyl)propane-1,3-diol]
9.26	–	114 nM	112%	10200 nM	–	CCOc1ccc(-c2nc(-c3cccc4c3ccn4CC(N)(CO)CO)no2)cc1Cl [Example 49, 2-Amino-2-((4-(5-(3-chloro-4-ethoxyphenyl)-1,2,4-oxadiazol-3-yl)-1H-indol-1-yl)methyl)propane-1,3-diol]
1.3	–	17.9 nM	87%	3000 ± 170 nM	–	CCCOc1ccc(-c2nc(-c3cccc4c3CCN4CC(N)(CO)CO)no2)cc1Cl [Example 50, 2-Amino-2-((4-(5-(3-chloro-4-propoxyphenyl)-1,2,4-oxadiazol-3-yl)indolin-1-yl)methyl)propane-1,3-diol]
268.44	–	–	82%	1000 nM	–	NC(CO)(CO)CN1CCc2c(-c3noc(C45CC6CC(CC(C6)C4)C5)n3)cccc21 [Example 57, 2-Amino-2-((4-(5-(1-adamantyl)-1,2,4-oxadiazol-3-yl)indolin-1-yl)methyl) propane-1,3-diol]
150	–	> 2060 nM	60%	1700 nM	–	CCOc1ccc(-c2nc(-c3ccc(C4=CCN(CC(N)(CO)CO)CC4)cc3)no2)cc1OCC [Example 58, 2-Amino-2-((4-(4-(5-(3,4-diethoxyphenyl)-1,2,4-oxadiazol-3-yl)phenyl)-5,6-dihydropyridin-1(2H)-yl)methyl)propane-1,3-diol]
3188.66	2400 ± 620 nM	> 40000 nM	–	–	–	CCCCCCCCOc1ccc(CCC(N)(CO)CO)cc1C12CC3CC(CC(C3)C1)C2.Cl [Example 63, 2-Amino-2-(3-(1-admantyl)-4-(octyloxy)phenethyl)propane-1,3-diol hydrochloride salt]
–	3440 ± 120 nM	–	–	–	–	NC(CO)(CO)CCc1ccc(-c2ccc(O)c(C34CC5CC(CC(C5)C3)C4)c2)cc1 [Example 64, 2-Amino-2-(2-(3′-(1-admantyl)-4′-hydroxybiphenyl-4-yl)ethyl)propane-1,3-diol hydrochloride salt]
0.16	–	7.4 nM	97%	–	390 nM	CCOc1ccc(-c2nc(-c3ccc4c(c3)CN(CC(N)(CO)CO)C4)no2)cc1OCC [Example 65, 2-Amino-2-((5-(5-(3,4-diethoxyphenyl)-1,2,4-oxadiazol-3-yl)isoindolin-2-yl)methyl)propane-1,3-diol]
–	–	–	99%	3340 ± 190 nM	–	CCCCCCCCc1ccc(CCC(N)(CO)CO)cc1 [FTY 720, 2-amino-2-(2-[4-octylphenyl]ethyl)-1,3-propanediol, reference compound]

Second part, the molecule before the results:

Molecule	EC50S1P1/EC50S1P (S1P1 human receptor)	IC50 [1]	EC50 (S1P1 human receptor)	Efficacy (% of maximum) (S1P1 human receptor)	IC50 ([1]; Homo sapiens)	EC50 (S1P3 human receptor)
NC(CO)(CO)CN1CCc2c(OCc3cc4c(Cl)cc(Cl)cc4o3)cccc21 [41(a), 2-Amino-2-((4-((4,6-dichlorobenzofuran-2-yl)methoxy)indolin-1-yl)methyl)propane-1,3-diol]	144.46	–	> 1360 nM	42%	2550 ± 780 nM	–
CCCCCCCCc1ccc2c(c1)CN(CC(N)(CO)CO)C2 [Example 2, 2-Amino-2-((5-octylisoindolin-2-yl)methyl)propane-1,3-diol]	593	–	1560 nM	91%	3480 ± 140 nM	–
CCCCCCCCc1ccc2c(c1)CCN2CC(N)(CO)CO [Example 3, 2-Amino-2-((5-octylindolin-1-yl)methyl)propane-1,3-diol]	709	–	2110 nM	73%	3700 ± 1020 nM	–
COc1ccc(-c2nc(-c3ccc4c(c3)CCN4CC(N)(CO)CO)no2)cc1Cl [Example 7, 2-Amino-2-((5-(5-(3-chloro-4-methoxyphenyl)-1,2,4-oxadiazol-3-yl)indolin-1-yl)methyl)propane-1,3-diol]	278	–	783 nM	109%	3070 ± 460 nM	–
NC(CO)(CO)CN1CCc2cc(OCc3cc4c(Cl)cc(Cl)cc4o3)ccc21 [Example 8, 2-Amino-2-((5-((4,6-dichlorobenzofuran-2-yl)methoxy)indolin-1-yl)methyl) propane-1,3-diol]	23	–	131 nM	85%	1930 ± 580 nM	–
CCCCCCCCc1ccc2c(c1)CCCN2CC(N)(CO)CO [Example 9, 2-Amino-2-((6-octyl-3,4-dihydroquinolin-1(2H)-yl)methyl)propane-1,3-diol]	>1000	–	> 860 nM	–	2460 ± 510 nM	–
CCCCCCCCc1ccc2c(c1)CCN(CC(N)(CO)CO)C2 [Example 10, 2-Amino-2-((6-octyl-3,4-dihydroisoquinolin-2(1H)-yl)methyl)propane-1,3-diol]	>1000	–	> 510 nM	–	1380 ± 170 nM	–
CC1(C)C2CCC(CCOc3ccc(CCC(N)(CO)CO)cc3)C1C2.Cl (stereo not drawn) [Example 23, 2-Amino-2-(4-(2-(6,6-dimethylbicyclo[3.1.1]heptan-2-yl)ethoxy)phenethyl) propane-1,3-diol hydrochloride salt]	419	–	1240 nM	72%	2260 ± 680 nM	–
COc1ccc(-c2nc(-c3ccc4c(c3)CCN4CC(N)(CO)CO)no2)cc1C12CC3CC(CC(C3)C1)C2 [Example 30]	>1000	3190 ± 260 nM	> 55400 nM	–	–	–
NC(CO)(CO)CN1CCC2CCCCC2C1 (stereo not drawn) [Example 62, 2-Amino-2-((octahydroisoquinolin-2(1H)-yl)methyl)propane-1,3-diol]	–	–	–	–	> 100000 nM	–
